The test system of assay [1] is lung squamous cell carcinoma; urothelial carcinoma with FGFR3 alterations. The settings on record: cited from earlier work.
In a further assay the test system is advanced solid tumors. The settings on record: all responders had FGFR2 or FGFR3 translocations; cited from earlier work.
The test system of another assay is several tumour types. The note with it: cited from earlier work.
The next assay concerns advanced solid tumours. In words: Preliminary antitumour efficacy (RECIST v1.1). The format is in vivo, human. As for the experimental part: Tumour assessments were performed according to Response Evaluation Criteria in Solid Tumors version 1.1 (RECIST v1.1) at baseline, on day 21 of the first treatment cycle, then every 6 weeks after the start of treatment for 12 weeks, and thereafter every 12 weeks (±1 week) until discontinuation of study treatment or withdrawal of consent.

The mark [2] stands for this setting: previously treated advanced/metastatic UC with FGFR3 alterations.
The mark [3] stands for this setting: one patient with FGFR1-amplified squamous NSCLC, 80 mg bid.

“Also recorded” adds a separate entry of the source. Read-outs that look alike come from different tables or passages of the source. Where only a bound is given, the exact number is not on record here.

On to `CCN1CCN(c2ccc(Nc3cc(N(C)C(=O)Nc4c(Cl)c(OC)cc(OC)c4Cl)ncn3)cc2)CC1` [BGJ398], for which the “Patients with PR” value in assay [1] (lung squamous cell carcinoma, selected by FGFR amplification status) is reported as 2/17. Further, in assay [1] (setting [2]), the Complete response result is recorded as “one unconfirmed complete response” and the “Patients with PR” value is 8/25.

As to `COc1cc(OC)cc(N(CCNC(C)C)c2ccc3ncc(-c4cnn(C)c4)nc3c2)c1` [JNJ-42756493], the “Patients with PR” value with advanced solid tumors is listed as 4/23.

With AZD4547, the “Patients with stable disease” value in the assay with several tumour types (4/21 additional patients) was 19%. Besides, in the assay with several tumour types (setting [3]), the Best response result is “partial response”. Besides, the “Duration of PR” value in the assay with several tumour types (setting [3]) is no less than 12 weeks. Moreover, the “Patients with stable disease (≥4 weeks' duration)” value with advanced solid tumours (Part A) is 70%; with advanced solid tumours (Part A, 40 mg bid) it was 3 n; with advanced solid tumours (Part A, 80 mg bid), 3 n; in the assay on advanced solid tumours (Part A, 120 mg bid), 5 n; with advanced solid tumours (Part A, 160 mg qd), 10 n. The “Patients with stable disease ≥4 weeks” value with advanced solid tumours (Part A) is given as 21/30. The “Range of percentage change in the sum of the diameters of target lesions” value in the assay on advanced solid tumours (Part A) is recorded as “–6.8% to 48.9”; with advanced solid tumours (Part B), “–16.3% to 23.4”. The “Median percentage change in the sum of the diameters of target lesions” value with advanced solid tumours (Part A (25/30 patients)) came out at 5.9%; with advanced solid tumours (Part B (all patients)) it was 3.0%. Further, the “Patients continuing to experience stable disease at 10 weeks” value in the assay on advanced solid tumours (Part B, 80 mg bid) came to 25.0%. Moreover, in the assay on advanced solid tumours (Part B, 80 mg bid), the “Patients with stable disease ≥10 weeks” value is recorded as 1/4. In addition, the “Complete responses and partial responses (RECIST v1.1)” value in the assay on advanced solid tumours (Parts A and B) is on record as “No complete or partial responses were observed; also recorded: not observed”.

The record behind these values is paper PMC5502072 (Investigational New Drugs, 2017).
